For 14 compounds, IC50 results are on record in patent publication US11883387B2, “PqsR inverse agonists” (HELMHOLTZ-ZENTRUM FÜR INFEKTIONSFORSCHUNG GMBH, priority 2018, dated 2024).

One may read the IC50 as the concentration needed to halve the response being measured.

Sequence of PqsR (Q9I4X0 whole entry): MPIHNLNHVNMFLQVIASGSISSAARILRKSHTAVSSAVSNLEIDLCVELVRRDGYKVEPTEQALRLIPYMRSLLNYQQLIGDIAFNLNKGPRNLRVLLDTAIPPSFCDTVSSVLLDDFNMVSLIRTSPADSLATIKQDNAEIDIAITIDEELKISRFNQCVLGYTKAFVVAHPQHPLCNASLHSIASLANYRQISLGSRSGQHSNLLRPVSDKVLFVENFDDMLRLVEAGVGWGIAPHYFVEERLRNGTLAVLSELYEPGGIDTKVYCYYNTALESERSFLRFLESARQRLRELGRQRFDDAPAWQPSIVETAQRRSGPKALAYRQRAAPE

The first experiment concerns the target PqsR (Pseudomonas aeruginosa, UniProt Q9I4X0). The experiment can be described thus: E. coli based β-galactosidase reporter gene assay (PqsR inverse agonistic activity).
Details: not given
In kind it is cell-based. The arrangement: expressed in transfected cells; host or cells: Escherichia coli DH5α. The protocol:
Inhibition of pqsR-dependent gene expression of test compounds was determined in an E. coli based β-galactosidase reporter gene assay.[19] Escherichia coli DH5α was transfected with pEAL08-2 plasmid encoding pqsR under control of promoter tac and β-galactosidase reporter gene lacZ under control of promoter pqsA. Antagonistic effects of compounds were evaluated in the presence of/in competition to 50 nM PQS. A positive control was used to ensure the reliability of individual assays. First, PQS was diluted in methanol and added to the wells of a glass coated 96-deep-well plate, and the solvent was evaporated. Then, compounds were added in 5 μL DMSO to final concentrations of 0.001-10 μM. Overnight cultures of E. coli DH5a×pEAL08-2 were diluted 1:100 in LB medium with ampicillin (50 μg/ml) and incubated at 37° C. with shaking until it reached an OD600 of 0.2. Finally, 995 μL of culture was added to each well and the p-galactosidase activity was determined by ortho-nitrophenyl-p-galactoside conversion in permeabilized cells after a 2.5 h incubation period (37° C., 180 rpm). OD600, OD420, and OD550 were measured using POLARstar Omega (BMG Labtech, Ortenberg, Germany), and the activity was expressed as ratio of the slope of β-galactosidase activity between basal control (no PQS) and solvent control. IC50 values of antagonists were determined by variation of the concentration of the test compounds.
`COc1cc(SCc2nc3cc(Oc4ccccc4)ccc3[nH]2)nc(C(F)(F)F)n1` [Compound 126, 2-(((6-Methoxy-2-(trifluoromethyl)pyrimidin-4-yl)thio)methyl)-5-phenoxy-1H-benzo[d]imidazole] gave an IC50 of 251 to 1000 nM.
As to `Fc1cccc(Oc2ccc3[nH]c(CSc4ccnc(C(F)(F)F)c4)nc3c2)c1` [Compound 130, 5-(3-Fluorophenoxy)-2-(((2-(trifluoromethyl)pyridin-4-yl)thio)methyl)-1H-benzo[d]imidazole], the IC50 was ≤ 50 nM.
Turning to `FC(F)(F)c1cc(OCc2nc3ccc(Oc4ccccc4)cc3o2)ccn1` [Compound 133, 6-Phenoxy-2-(((2-(trifluoromethyl)pyridin-4-yl)oxy)methyl)benzo[d]oxazole], the IC50 was in the range of 251 to 1000 nM.
Same read-out and setting: then `FC(F)(F)c1cc(SCc2ccn(-c3ccc(Cl)cc3)n2)ccn1` [Compound 135, 4-(((1-(4-chlorophenyl)-1H-pyrazol-3-yl)methyl)thio)-2-(trifluoromethyl)-pyridine], with 251 to 1000 nM.
For `FC(F)(F)c1cc(SCc2nnc(-c3ccc(Cl)cc3)o2)ccn1` [Compound 136, 2-(4-Chlorophenyl)-5-(((2-(trifluoromethyl)pyridin-4-yl)thio)methyl)-1,3,4-oxadiazole], the IC50 was 251 to 1000 nM.
With `FC(F)(F)c1cc(SCc2nc(-c3ccc(Cl)cc3)no2)ccn1` [Compound 137, 3-(4-Chlorophenyl)-5-(((2-(trifluoromethyl)pyridin-4-yl)thio)methyl)-1,2,4-oxadiazole], the IC50 lay in the range of 251 to 1000 nM.
For `FC(F)(F)c1cc(SCc2nnn(-c3ccc(Cl)cc3)n2)ccn1` [Compound 138, 4-(((2-(4-Chlorophenyl)-2H-tetrazol-5-yl)methyl)thio)-2-(trifluoromethyl)pyridine], the IC50 fell in the range of 251 to 1000 nM.
Take `FC(F)(F)c1cc(NCc2cn(-c3ccc(-n4ncc5ncccc54)cc3)nn2)ccn1` [Compound 149, N-((1-(4-(1H-pyrazolo[4,3-b]pyridin-1-yl)phenyl)-1H-1,2,3-triazol-4-yl)methyl)-2-(trifluoromethyl)pyridin-4-amine]: the IC50 was ≤ 50 nM.

The next experiment deals with P. aeruginosa pyocyanin production. Nature of the experiment: Pyocyanin assay. In kind it is cell-based, P. aeruginosa PA14. The following applies: Pseudomonas aeruginosa, PA14, 16 h, read-out: IC50-value towards pyocyanin production, PA14 in PPGAS medium, 16 h. The protocol:
Inhibition of P. aeruginosa pyocyanin production by compounds was determined photometrically as described before.[20] In short, an overnight culture of PA14 in PPGAS medium was washed, diluted in medium to a start OD600 of 0.02, and incubated for 16 h (37° C., 200 rpm, relative humidity 75%) in the presence of test compounds. Then, cultures were extracted with chloroform and re-extracted with 0.2 M HCl. Protonated red colored pyocyanin was determined by measuring OD520 and normalizing to OD600.
Regarding `CC(C)Oc1ccc(-n2cc(CNc3cc(Cl)nc(C(F)(F)F)c3)nn2)cc1` [Compound 140, 2-chloro-N-((1-(4-isopropoxyphenyl)-1H-1,2,3-triazol-4-yl)methyl)-6-(trifluoromethyl)pyridin-4-amine], the IC50 is ≤ 250 nM.
On the same count and under the same terms, the figure for `Fc1cccc2c1cnn2-c1ccc(-n2cc(CNc3cc(Cl)nc(C(F)(F)F)c3)nn2)cc1` [Compound 146, 2-chloro-N-((1-(4-(4-fluoro-1H-indazol-1-yl)phenyl)-1H-1,2,3-triazol-4-yl)methyl)-6-(trifluoromethyl)pyridin-4-amine] is 251 to 1000 nM; for `FC(F)(F)c1cc(NCc2cn(-c3ccc(-n4ncc5ccccc54)cc3)nn2)cc(Cl)n1` [Compound 150, N-((1-(4-(1H-indazol-1-yl)phenyl)-1H-1,2,3-triazol-4-yl)methyl)-2-chloro-6-(trifluoromethyl)pyridin-4-amine] it is 251 to 1000 nM.
On the same count and under the same terms, then `FC(F)(F)c1cc(NCc2cn(-c3ccc(-n4ncc5ccncc54)cc3)nn2)cc(Cl)n1` [Compound 151, N-((1-(4-(1H-pyrazolo[3,4-c]pyridin-1-yl)phenyl)-1H-1,2,3-triazol-4-yl)methyl)-2-chloro-6-(trifluoromethyl)pyridin-4-amine], with 251 to 1000 nM; and `CC(C)Oc1ccc(-c2ncc(CNc3cc(C#N)nc(C(F)(F)F)c3)s2)cc1` [Compound 163, 4-(((2-(4-Isopropoxyphenyl)thiazol-5-yl)methyl)amino)-6-(trifluoromethyl)picolinonitrile], with ≤ 250 nM.
On the same count and under the same terms, then `Fc1ccccc1Oc1ccc(-c2ncc(CNc3cc(Cl)nc(C(F)(F)F)c3)cn2)cc1` [Compound 167, 2-chloro-N-((2-(4-(2-fluorophenoxy)phenyl)pyrimidin-5-yl)methyl)-6-(trifluoromethyl)pyridin-4-amine], with ≤ 250 nM.
